Measured values: patent US20190330607A1, “USE OF A SUGAR TOLERANT BETA-GLUCOSIDASE” (Universitè de Liége, priority 2016, published 2019)
Like-named read-outs stand apart in the source and are kept apart here.

Legend:
Assay type in all cases: biochemical
[1] = test system: BglC (beta-glucosidase of Streptomyces scabies 87-22); test: Relative enzyme activity of BglC with p-NPβG as substrate in presence of tested reagent
Method: (§1) Relative enzyme activity was determined using p-nitrophenyl-β-D-glucopyranoside (p-NPβG) as substrate. The reaction mixture (200 μL) containing 50 mM HEPES buffer (pH 7.5), 0.2 μM of purified BglC and the tested reagent was incubated 10 minutes at 25° C. before addition of 1 mM p-NPβG. The reaction was carried out at 25° C. for 2 minutes and stopped by addition of 100 μL of 2 M Na2CO3. All assays were performed under these conditions, unless otherwise indicated. The release of p-nitrophenol (p-NP) was measured at 405 nm with a TECAN Infinite® 200 PRO. The activity assayed in absence of the tested reagent was recorded as 100%.

[2] = Effect of temperature and pH on BglC activity (p-NPβG)
Method: as §1
The optimal temperature was determined by measuring the relative enzyme activity of BglC in HEPES 50 mM pH 7.5 at 20, 25, 30, 37 and 42° C. To measure the effect of pH on activity of BglC, relative activity was essayed in the range of pH 5.0-6.5 (50 mM MES buffer), pH 7.0-8.5 (50 mM HEPES buffer) and pH 9-10 (50 mM CHES buffer) at 25° C.

[3] = Substrate specificity of BglC by thin layer chromatography; details: 30° C.
Method: The cleavage ability of BglC was tested against different cello-oligosaccharides (cellobiose, cellotriose, cellotetraose, cellopentaose and cellohexaose (Megazyme; Ireland)) or different disaccharides (lactose, saccharose, maltose, threalose and turanose). Reaction mixtures (100 μL) containing 50 mM HEPES buffer pH 7.5, 0.4 μM of purified BglC, 6.25 mM of cello-oligosaccharides or 12.5 mM of disaccharides were incubated at 30° C. 15 μL of each sample were collected at 0, 15, 30 and 60 min than heated at 98° C. for 5 min to stop the reaction. Each sample was spotted onto aluminum-backed Silica gel plate (Sigma). The plates were developed with chloroform-methanol-acetic acid-water solvent (50:50:15:5, vol/vol), air dried, dipped in 5% H2SO4 in ethanol and finally heated over a hot plate until visualization of carbohydrate spots.

[4] = Time course of cellobiose hydrolysis by BglC over 7 days, HPLC
Method: Glucose and cellobiose analysis was performed by HPLC on an Aminex HPX-87P Column (300×7.8 mm) heated to 80° C. with H2O as eluent (flow rate 0.6 mL/min). Peaks were detected by refractive index detector (Waters 2414).
The tolerance of BglC to glucose was further investigated during prolonged reaction time (7 days). Cellobiose and glucose quantification were performed by HPLC (FIG. 5). 80% of cellobiose was hydrolyzed in 48 h (FIG. 5).

[5] = Kinetic analysis of BglC on cellobiose (glucose released, D-Glucose HK Assay Kit)
Method: Kinetic parameters of BglC (Km and kcat) were determined by measuring the glucose released at various cellobiose concentrations in 50 mM HEPES buffer pH 7.5 at 26° C. Reaction time of 7 min was chosen to ensure initial rates of hydrolysis. The glucose released was determined using the D-Glucose HK Assay Kit from Megazyme (Ireland). Data were fitted to the Henri-Michaelis-Menten equation using the GraphPad Prism 5 software.

[6] = reagent 10 mM, activity without additive = 100%
[7] = reagent 10%, activity without additive = 100%
[8] = Oses (15%), control = 100%, p-NPβG substrate
[9] = substrate cellobiose, 50 mM HEPES pH 7.5, 26° C.

## O[C@H](CS)[C@H](O)CS (racemic) [DTT, dithiothreitol]
[1]; [6]
  Relative initial rate of hydrolysis (%): 116 ± 5%

## O=C(O)CN(CCN(CC(=O)O)CC(=O)O)CC(=O)O [EDTA, ethylene diamine tetraacetic acid]
[1]; [6]
  Relative initial rate of hydrolysis (%): 98 ± 15%

## CCO [Ethanol, ethanol]
[1]; ethanol 0 to 40% tested (FIG. 6)
  ethanol concentration with maximal enhancing activity: 15%
[1]; [7]
  Relative initial rate of hydrolysis (%): 218 ± 6%

## O=C(CO)[C@@H](O)[C@H](O)[C@H](O)CO [Fructose, fructose]
[1]; [8]
  Relative initial rate of hydrolysis (%): 178 ± 9%

## O=C[C@H](O)[C@@H](O)[C@@H](O)[C@H](O)CO [Galaclose, galactose]
[1]; [8]
  Relative initial rate of hydrolysis (%): 255 ± 9%

## CO [Methanol, methanol]
[1]; [7]
  Relative initial rate of hydrolysis (%): 65 ± 6%

## [Cl-].[Na+] [NaCl]
[1]; NaCl 500 mM (FIG. 7)
  activity of BglC kept: around 70%
[1]; NaCl 1 M (FIG. 7)
  activity of BglC: about 50%
[1]; NaCl below 100 mM (FIG. 7)
  effect on capacity of the enzyme to hydrolyze p-NPβG: does not significantly alter

## CCCCCCCCCCCCOS(=O)(=O)[O-].[Na+] [SDS]
[1]; [6]
  Relative initial rate of hydrolysis (%): 64 ± 3%

## OC[C@@H](O)[C@@H](O)[C@H](O)[C@@H](O)CO [Sorbitol, sorbitol]
[1]; [8]
  Relative initial rate of hydrolysis (%): 202 ± 1%

## NC(N)=O [Urea, urea]
[1]; [6]
  Relative initial rate of hydrolysis (%): 103 ± 13%

## O=C[C@H](O)[C@@H](O)[C@H](O)CO [Xylose, xylose]
[1]; [8]
  Relative initial rate of hydrolysis (%): 340 ± 20%
[1]; xylose 0.3 to 1.6 M (FIG. 4)
  maximal activity of BglC: 300-350%

B1: BglC: recombinant His-tagged beta glucosidase of Streptomyces scabies 87-22, SEQ ID NO:2 (protein, listed as Streptomyces scabiei)
chain: MPEPVNPATPVTFPPAFLWGAATSAYQIEGAVREDGRTPSIWDTFSHTPGKTAGGENGDIAVDHYHRYRDDVAMMADLGLNAYRFSVSWSRVQPTGRGPAVQKGLDFYRRLVDELLAKGIKPAVTLYHWDLPQELEDAGGWPERDIVHRFAEYARIMGEALGDRVEQWITLNEPWCTAFLGYGSGVHAPGRTDPVASLRAAHHLNVAHGLGVSALRSAMPARNSIAVSLNSSVVRPITSSPEDRAAARKIDDLANGVFHGPMLHGAYPETLFAATSSLTDWSFVRDGDVATAHQPLDALGLNYYTPALVGAADAGLEGPRADGHGASEHSPWPAADDVLFHQTPGERTEMGWTIDPTGLHELIMRYAREAPGLPMYVTENGAAYDDKMDADGRVHDPERIAYLHGHLRAVRRAIAEGADVRGYYLWSLMDNFEWAYGYGKRFGAVYVDYATLTRTPKSSAHWYGQAAKTGALPPLAPAPA
modifications: His6 tag
[2]; 25° C., pH 5-10 tested
  optimal pH: around 7.5
[2]; 42° C., HEPES 50 mM pH 7.5 (FIG. 3A)
  activity relative to maximal activity: 10%
[3]; 6.25 mM substrate, 0.4 μM BglC, 0-60 min (FIG. 2)
  hydrolysis of cellobiose and cello-oligosaccharides (cellotriose to cellohexaose): able to generate glucose
[3]; 12.5 mM disaccharides
  hydrolysis of other disaccharides (saccharose, maltose, threalose, turanose): did not reveal hydrolysis
[3]; 12.5 mM, compared with cellobiose or cello-oligosaccharides
  hydrolysis of lactose: much less efficiency
[4]; between glucose and cellobiose, 7 days reaction, glucose only product detected
  transglycosylation activity: no or reduced transglycosylation activity
[4]; in 48 h (FIG. 5)
  cellobiose hydrolyzed: 80%
[5]
  Vmax: 7.3 µmol/min/mg
[5]; [9]
  Km: 770 µM
  Vmax: 7.3 µmol/min/mg
  kcat: 6.67 s⁻¹
